Common to all, as to type: binding
The target in one experiment is T1, Plk1 PBD (Homo sapiens, UniProt P53350).
T1 construct: a plasmid encoding myc-tagged Plk1 PBD was purchased from Addgene; host or cells: HEK-293T
As to the kind of experiment: Fluorescence polarization (FP) assay, isolated Plk1 PBD. The settings on record: for IC50: FP assay, average ± SEM. As to the method: (§1) Plasmids encoding the myc-tagged PBDs of Plk2 and Plk3 were generous gifts from Prof. […] The supernatant containing expressed protein was diluted into 8 mL of PBS (pH 7.4) containing protease/phosphatase inhibitor cocktail. This protein solution was added to a 1 mL bed of myc-agarose resin (Thermo Scientific, Waltham, MA, USA) and allowed to bind for 2 h at 4 °C with gentle rotation. The lysate was eluted and the resin was washed 4× with 4-(2-hydroxyethyl)-1-piperazineethanesulfonic acid (HEPES) buffered saline (HBS) containing 0.05% Tween-20, 1 mM dithiothreitol (DTT) and 1 mM ethylenediaminetetraacetic acid (EDTA). The bound PBD protein was then eluted with a 1 mg/mL solution of myc peptide ([…]) in HBS + 1 mM DTT and 1 mM EDTA. […] The concentration of the final protein solution was determined by absorbance at 280 nm and purity was determined by SDS-PAGE (sodium dodecyl sulfate-polyacrylamide gel electrophoresis) with Coomassie staining.
As previously reported, isolated PBD protein was diluted to a 2× working dilution in assay buffer (HEPES-buffered saline with 0.05% Tween-20, 1 mM DTT, and 1 mM EDTA). […] Inhibitors were serially diluted to generate 4× working dilutions in assay buffer containing 4% DMSO. 20 μL of 2× PBD solution was added to each well of a 384-well plate (0% binding controls received 20 μL of assay buffer). 10 μL of the 4× inhibitor solution (or DMSO blank) was added to corresponding wells and allowed to pre-incubate at RT for 30 min with shaking. The following sequences were utilized as fluorescent probes: 5CF-GPMQSpTPLNG-NH2 for Plk1 PBD; 5CF-GPMQTSpTPKNG-NH2 for Plk2 PBD and 5CF-PLATSpTPKNG-NH2 for Plk3 PBD [10]. Fluorescent probes were diluted to 40 nM (4×) in assay buffer and then 10 μL was added to each well. The plate was allowed to equilibrate at room temperature for (30 min) with shaking. […] The FP values were obtained in triplicate and normalized to 100% (no inhibitor) and 0% binding (no protein) controls. Normalized values were plotted versus concentration and analyzed using non-linear regression in GraphPad Prism 8 (GraphPad Software, San Diego, CA, USA) [log(inhibitor) vs. response-variable slope (four parameter) model].
In general terms: In fluorescence polarisation assays a small probe gives low polarisation when free and higher when bound to something large.

The next experiment relates to Plk2 PBD. Briefly: Fluorescence polarization (FP) assay, isolated Plk2 PBD. Particulars: average ± SEM. On the procedure:
as §1
(§2) As previously reported, isolated PBD protein was diluted to a 2× working dilution in assay buffer (HEPES-buffered saline with 0.05% Tween-20, 1 mM DTT, and 1 mM EDTA). […] Normalized values were plotted versus concentration and analyzed using non-linear regression in GraphPad Prism 8 (GraphPad Software, San Diego, CA, USA) [log(inhibitor) vs. response-variable slope (four parameter) model].

A further experiment has as its target T2, Plk3 PBD (Homo sapiens, UniProt Q9H4B4).
T2 sequence (Q9H4B4 418-646 limits assumed): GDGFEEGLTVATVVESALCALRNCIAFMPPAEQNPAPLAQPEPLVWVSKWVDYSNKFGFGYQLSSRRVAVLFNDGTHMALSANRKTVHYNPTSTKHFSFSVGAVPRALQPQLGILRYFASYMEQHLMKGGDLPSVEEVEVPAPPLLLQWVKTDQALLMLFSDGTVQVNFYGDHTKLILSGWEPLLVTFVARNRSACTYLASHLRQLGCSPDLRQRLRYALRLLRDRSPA
As to the kind of experiment: Fluorescence polarization (FP) assay, isolated Plk3 PBD. The settings on record: average ± SEM. As to the method:
as §1, §2

In the next experiment the target is T3, full-length Plk1 (Homo sapiens, UniProt P53350).
T3 construct: a plasmid encoding myc-tagged full-length Plk1 (Addgene, Plasmid #41160); host or cells: HEK-293T (crude cytosolic lysate, not purified)
Briefly: ELISA assay using full-length Plk1. On the technique in general: An ELISA detects its analyte on a solid surface through an enzyme-linked reagent.

This is an account of results in publication PMC6515314 (Molecules, 2019).

Starred links: 1 amine or outer side, 2 acyl side, 3 side chain; linkers in the order of their positions; H or OH if unused. Non-standard residues stand in square brackets, D forms with d. Residues, ends and D or L forms follow the SMILES beside them. X1 = O=C([C@H](Cc1cncn1CCCCc1cn(Cc2c(F)cccc2Oc2ccccc2)nn1)N[*:1])[*:2]; X3 = O=C([C@H](Cc1cncn1CCCCc1cn(Cc2ccc(F)c(Cl)c2)nn1)N[*:1])[*:2]; X4 = O=C([C@H](Cc1cncn1CCCCc1cn(Cc2ccc(F)cc2)nn1)N[*:1])[*:2]; X2 = O=C([C@H](Cc1cncn1CCCCc1cn(Cc2ccccc2)nn1)N[*:1])[*:2]; X5 = C#CCCCCn1cncc1C[C@H](N[*:1])C(=O)[*:2]; pT = C[C@@H](OP(=O)(O)O)[C@H](N)C(=O)O; Pra = C#CC[C@H](N)C(=O)O

A word on the IC50: it is the midpoint of a concentration-inhibition curve.

T1 sequence (P53350 326-603 limits assumed): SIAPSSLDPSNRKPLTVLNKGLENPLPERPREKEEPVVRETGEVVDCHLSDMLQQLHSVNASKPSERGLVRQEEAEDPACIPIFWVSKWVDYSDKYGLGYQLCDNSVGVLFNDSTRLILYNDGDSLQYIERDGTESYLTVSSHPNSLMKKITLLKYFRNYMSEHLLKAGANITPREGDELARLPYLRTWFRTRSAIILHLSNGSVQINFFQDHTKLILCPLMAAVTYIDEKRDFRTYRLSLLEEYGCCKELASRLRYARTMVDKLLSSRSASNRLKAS
T3 sequence (P53350 whole entry): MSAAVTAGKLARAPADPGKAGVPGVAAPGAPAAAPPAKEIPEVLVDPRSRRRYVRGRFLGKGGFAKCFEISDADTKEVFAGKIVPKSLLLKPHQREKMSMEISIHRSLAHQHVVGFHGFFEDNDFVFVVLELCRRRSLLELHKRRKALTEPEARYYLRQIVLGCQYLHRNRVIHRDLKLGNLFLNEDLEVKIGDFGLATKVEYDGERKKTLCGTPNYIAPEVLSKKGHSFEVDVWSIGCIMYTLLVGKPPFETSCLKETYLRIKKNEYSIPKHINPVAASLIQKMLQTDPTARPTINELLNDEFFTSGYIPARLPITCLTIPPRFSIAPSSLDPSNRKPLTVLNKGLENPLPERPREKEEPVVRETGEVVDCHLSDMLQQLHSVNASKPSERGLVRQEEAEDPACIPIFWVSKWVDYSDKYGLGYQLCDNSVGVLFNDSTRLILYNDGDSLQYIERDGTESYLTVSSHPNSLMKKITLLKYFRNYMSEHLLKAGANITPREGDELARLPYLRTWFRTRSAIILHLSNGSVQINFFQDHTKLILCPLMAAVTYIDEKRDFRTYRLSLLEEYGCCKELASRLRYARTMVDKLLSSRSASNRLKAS
Protocol for full-length Plk1: Following 48 h expression, cells were harvested, lysed in buffer (PBS, pH 7.4 with 0.5% NP-40 and protease/phosphatase inhibitor cocktail) using freeze/thaw cycles (3×) and centrifuged at 10,000× g for 10 min at 4 °C. The supernatant was removed to provide a crude cytosolic lysate containing overexpressed, myc-tagged Plk1 (total protein concentration determined by bicinchoninic acid (BCA) assay).
As previously reported [25, 26, 50] a biotinylated phosphopeptide (sequence: Biotin-Ahx-PMQS(pT)PLN-NH2) was diluted to 1 µM (from a 2 mM DMSO stock solution) in PBS (pH 7.4) and loaded onto the wells of a 96-well Neutravidin-coated plate (Pierce Biotechnology, ThermoFisher Scientific, Waltham, MA, USA) at 100 µL per well for 1 h (background control contained no biotinylated peptide). The wells were washed once with 150 µL PBST (PBS, pH 7.4 + 0.05% Tween-20), and then 100 µL of 1% BSA in PBS (pH 7.4) (blocking buffer) was added for 1 h. A cytosolic lysate-containing transiently expressed myc-tagged Plk1 protein was diluted to 300 µg/mL in PBS (pH 7.4) containing protease/phosphatase inhibitors (Pierce Biotechnology), mixed with competitive inhibitor (from a 10× stock in ~4% DMSO/PBS), and allowed to pre-incubate for 1 h (100 µL per well in a 96-well plate, 30 µg total protein). The blocked ELISA plate was washed 2× with PBST (PBS, pH 7.4 + 0.05% Tween-20) (150 µL) and the pre-incubated lysates were added to the plate and incubated (1 h). […] The wells were then washed 5× with PBST (150 µL) and incubated with Turbo TMB (3,3′,5,5′-tetramethyl benzidine substrate)-ELISA solution (Pierce Biotechnology) until the desired absorbance was reached (5–10 min). The reaction was quenched by the addition of 2 N aqueous H2SO4 and the absorbance was measured at 450 nm using a BioTek Synergy 2 96-well plate reader. Absorbance was plotted versus concentration (logM) and fit to a non-linear regression analysis using GraphPad Prism 8 software [model: log(inhibitor) vs. response-variable slope (four parameters)].

For `CC(=O)N1CCC[C@H]1C(=O)N[C@@H](CC(C)C)C(=O)N[C@@H](Cc1cncn1CCCCc1cn(Cc2ccc(F)c(Cl)c2)nn1)C(=O)N[C@@H](CO)C(=O)N[C@H](C(N)=O)[C@@H](C)OP(=O)(O)O` [Peptide 3c] (Ac-PL[X3]S[pT]-NH2), 130 ± 9.8 nM corresponded to half-maximal inhibition against Plk1 PBD (IC50).

On Plk1 PBD, `CC(=O)N1CCC[C@H]1C(=O)N[C@@H](CC(C)C)C(=O)N[C@@H](Cc1cncn1CCCCc1cn(Cc2ccc(F)cc2)nn1)C(=O)N[C@@H](CO)C(=O)N[C@H](C(N)=O)[C@@H](C)OP(=O)(O)O` [Peptide 3b] (Ac-PL[X4]S[pT]-NH2) returned an IC50 of 100 ± 19 nM.

As to `C#CCCCCn1cncc1C[C@H](NC(=O)[C@H](CC(C)C)NC(=O)[C@@H]1CCCN1C(C)=O)C(=O)N[C@@H](CO)C(=O)N[C@H](C(N)=O)[C@@H](C)OP(=O)(O)O` [Peptide 13] (Ac-PL[X5]S[pT]-NH2), on Plk1 PBD, half-maximal inhibition (IC50) was put at 1100 ± 45 nM.

Regarding `CC(=O)N1CCC[C@H]1C(=O)N[C@@H](CC(C)C)C(=O)N[C@@H](Cc1cncn1CCCCc1cn(Cc2c(F)cccc2Oc2ccccc2)nn1)C(=O)N[C@@H](CO)C(=O)N[C@H](C(N)=O)[C@@H](C)OP(=O)(O)O` [Peptide 3d] (Ac-PL[X1]S[pT]-NH2), the IC50 at Plk1 PBD is 25 ± 1.6 nM; with Plk2 PBD, 5900 ± 420 nM; on Plk3 PBD, 9900 ± 2200 nM; at full-length Plk1 (ELISA, myc-tagged full-length Plk1 lysate, ± SEM, read-out: IC50 (nM) against full-length Plk1) it was 12000 ± 2100 nM. Besides, the “Fold-change relative to isolated PBD value” at full-length Plk1 (full-length Plk1 ELISA IC50 vs isolated PBD FP IC50) is listed as 480 ×. The “potency reduction in the full-length assay relative to the isolated PBD assay” value at full-length Plk1 (full-length Plk1 ELISA vs isolated PBD FP) is given as 480 fold.

Regarding `CC(=O)N1CCC[C@H]1C(=O)N[C@@H](CC(C)C)C(=O)N[C@@H](Cc1cncn1CCCCc1cn(Cc2ccccc2)nn1)C(=O)N[C@@H](CO)C(=O)N[C@H](C(N)=O)[C@@H](C)OP(=O)(O)O` [Peptide 3a] (Ac-PL[X2]S[pT]-NH2), the “relative loss of Plk1 PBD-binding affinity versus peptide 2a” value at Plk1 PBD (FP) is around 8 fold. This molecule also showed an IC50 against Plk1 PBD of 110 ± 6.6 nM.

As for `C#CC[C@H](NC(=O)[C@H](CC(C)C)NC(=O)[C@@H]1CCCN1C(C)=O)C(=O)N[C@@H](CO)C(=O)N[C@H](C(N)=O)[C@@H](C)OP(=O)(O)O` [Peptide 17] (Ac-PL[Pra]S[pT]-NH2), the “loss of Plk1 PBD-binding affinity compared with parent peptide 1” value at Plk1 PBD (FP) is reported as around 2 fold. Moreover, half-maximal inhibition against Plk1 PBD (IC50) required 1000 ± 140 nM.
